Our source for the GI50 and TGI values is PubChem BioAssay (NCI).

Where “and” joins values, the source holds several entries; their conditions need not be identical. Equal values may be shown once.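 Protocol summary: plate cells (96-well), add compound at 5 concentrations, incubate 48 h, interpolate endpoints linearly. GI50 is the concentration that inhibits growth by half. Definition used: TGI = concentration required for complete inhibition of growth.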

Some test systems named below: SK-MEL-28 melanoma; A549 NSCLC; SF-539 CNS; U251 CNS; SNB-75 CNS; SK-MEL-2 melanoma; MOLT-4 leukemia; COLO 205 colon; UACC-62 melanoma; SF-295 CNS.
Experiment in all cases: NCI-60 cell line screen, 48 h

Turning to `O=[N+]([O-])c1cccc(C2CC(c3ccccc3)=Nc3ccccc3S2)c1` (centres undefined), the GI50 was 17.4 µM in the assay with SK-MEL-28 melanoma; 30.6 µM in the assay with A549 NSCLC; 17.2 µM with SF-539 CNS; 8.48 µM with U251 CNS; 9.53 µM with SNB-75 CNS; 21 µM with SK-MEL-2 melanoma. Further, the GI50 was 7.44 µM with MOLT-4 leukemia, 19.2 µM in the assay on COLO 205 colon, 12.1 µM in the assay with UACC-62 melanoma and 25.1 µM in the assay on SF-295 CNS. Moreover, the TGI is 34.2 µM in the assay with SK-MEL-28 melanoma; more than 100 µM in the assay on A549 NSCLC; 31.3 µM with SF-539 CNS; 21.2 µM in the assay on U251 CNS; more than 100 µM in the assay with SNB-75 CNS; 43.6 µM in the assay with SK-MEL-2 melanoma. Moreover, the TGI in the assay with MOLT-4 leukemia is more than 100 µM; with COLO 205 colon, 41.7 µM; in the assay with UACC-62 melanoma it was 44.1 µM; in the assay on SF-295 CNS, 77.7 µM.
As to `CSc1ccc2c(c1)C(N1CCN(C)CC1)Cc1ccccc1S2` (centres undefined), the GI50 was 1.64 µM in the assay on SK-MEL-28 melanoma; 2.17 µM with A549 NSCLC; 1.87 µM with SF-539 CNS; 1.53 µM in the assay on U251 CNS; 1.49 µM with SNB-75 CNS; 1.95 µM with SK-MEL-2 melanoma. Moreover, the GI50 is 1.89 µM in the assay with MOLT-4 leukemia, 1.76 µM in the assay on COLO 205 colon, 1.8 µM in the assay with UACC-62 melanoma and 1.84 µM in the assay on SF-295 CNS. Also, the TGI with SK-MEL-28 melanoma was 3.06 µM; in the assay on A549 NSCLC it was 24.2 µM and 5.72 µM; in the assay with SF-539 CNS, 18.9 µM and 3.61 µM; in the assay on U251 CNS, 18.6 µM and 2.95 µM; with SNB-75 CNS it was 3.15 µM and 3.87 µM; in the assay on SK-MEL-2 melanoma it was 7.82 µM and 3.8 µM. Besides, the TGI is 8.67 µM and 3.87 µM in the assay on MOLT-4 leukemia; 3.74 µM and 3.29 µM in the assay on COLO 205 colon; 4.2 µM and 3.3 µM in the assay on UACC-62 melanoma; 15.2 µM and 3.7 µM in the assay on SF-295 CNS.
`Cc1c(/C=N/N(C)C)oc2c1cc(O)c1ncccc12`: the TGI is more than 100 µM with SK-MEL-28 melanoma; more than 100 µM in the assay with A549 NSCLC; more than 100 µM in the assay with U251 CNS; 86.6 µM in the assay on SNB-75 CNS; 44.5 µM in the assay with SK-MEL-2 melanoma; 16.8 µM in the assay on MOLT-4 leukemia. For the same compound, the figures for the TGI in the assay on COLO 205 colon, in the assay with UACC-62 melanoma and with SF-295 CNS were more than 100 µM, 45.9 µM and 97.9 µM, respectively.
As to `O=P(O)(O)C1(P(=O)(O)O)CC1`, the TGI with SK-MEL-28 melanoma, in the assay on A549 NSCLC, in the assay on SF-539 CNS, in the assay on U251 CNS, in the assay with SNB-75 CNS and in the assay on SK-MEL-2 melanoma was more than 100 µM throughout. Further, the TGI in the assay on MOLT-4 leukemia, with COLO 205 colon, in the assay with UACC-62 melanoma and in the assay on SF-295 CNS was more than 100 µM throughout.
In the case of `N#CC1c2ccccc2C=CN1C(=O)N(c1ccccc1)c1ccccc1` (centres undefined), the GI50 in the assay on SK-MEL-28 melanoma is 2.43 µM; in the assay on A549 NSCLC, 19.7 µM; with SF-539 CNS it was 4.69 µM; in the assay with U251 CNS it was 6.59 µM; in the assay with SNB-75 CNS, 6.3 µM; in the assay on SK-MEL-2 melanoma it was 3.97 µM. In addition, the GI50 is 2.44 µM in the assay on MOLT-4 leukemia, 1.83 µM in the assay on COLO 205 colon, 2.13 µM with UACC-62 melanoma and 12.6 µM with SF-295 CNS. The TGI worked out at 5.84 µM in the assay with SK-MEL-28 melanoma; 51.8 µM in the assay with A549 NSCLC; 17.9 µM in the assay with SF-539 CNS; 19.3 µM in the assay with U251 CNS; 21 µM with SNB-75 CNS; 13.6 µM with SK-MEL-2 melanoma. For the same compound, the TGI amounted to 7.45 µM in the assay with MOLT-4 leukemia, 3.43 µM in the assay on COLO 205 colon, 5.57 µM in the assay on UACC-62 melanoma and 25.2 µM with SF-295 CNS.
`O=C(NNc1ccccc1)/C(=C/c1ccc2c(c1)OCO2)NC(=O)c1ccccc1`: the TGI with SK-MEL-28 melanoma, with A549 NSCLC, with SF-539 CNS, in the assay on U251 CNS, with SNB-75 CNS and in the assay with SK-MEL-2 melanoma was more than 100 µM throughout. Moreover, the TGI in the assay with MOLT-4 leukemia, in the assay on COLO 205 colon, in the assay with UACC-62 melanoma and in the assay on SF-295 CNS was more than 100 µM in each case.
In the case of `Brc1ccc2ns[s+]c2c1`, the TGI in the assay on SK-MEL-28 melanoma is more than 100 µM; in the assay on A549 NSCLC, more than 100 µM; in the assay with SF-539 CNS, 65.3 µM; in the assay on U251 CNS, more than 31.6 µM; in the assay with SNB-75 CNS it was more than 100 µM; in the assay on SK-MEL-2 melanoma it was more than 100 µM. Besides, the TGI with MOLT-4 leukemia was more than 100 µM; with COLO 205 colon, more than 41.9 µM; in the assay with UACC-62 melanoma it was more than 20.5 µM; with SF-295 CNS it was more than 100 µM.
Consider `O=C1c2ccccc2C(=O)c2c(OCCOCCO)cccc21`, for which the TGI in the assay with SK-MEL-28 melanoma, with A549 NSCLC, in the assay on SF-539 CNS, with U251 CNS, with SNB-75 CNS and in the assay with SK-MEL-2 melanoma was more than 100 µM in each case. The TGI with MOLT-4 leukemia is more than 100 µM; in the assay with COLO 205 colon, more than 100 µM; in the assay on UACC-62 melanoma, 19.1 µM; in the assay with SF-295 CNS, more than 100 µM.
As for `O=C(Nc1nc2ccccc2s1)Nc1ccc([N+](=O)[O-])cc1Cl`, the GI50 in the assay on SK-MEL-28 melanoma is 6.25 µM; in the assay on A549 NSCLC, 2.17 µM; with SF-539 CNS, 1.69 µM; in the assay with U251 CNS, 2.13 µM; in the assay with SNB-75 CNS it was 1.87 µM; in the assay on SK-MEL-2 melanoma it was 12.7 µM. Moreover, the GI50 in the assay with MOLT-4 leukemia was 5.92 µM; in the assay with COLO 205 colon it was 10.3 µM; in the assay on UACC-62 melanoma it was 3.1 µM; with SF-295 CNS it was 3.31 µM. Further, the TGI amounted to 20.1 µM in the assay with SK-MEL-28 melanoma; 5.7 µM with A549 NSCLC; 3.11 µM in the assay on SF-539 CNS; 4.75 µM in the assay with U251 CNS; 5.36 µM with SNB-75 CNS; 26.9 µM in the assay on SK-MEL-2 melanoma. Further, the TGI was more than 47.4 µM with MOLT-4 leukemia, 32.9 µM with COLO 205 colon, 8.94 µM with UACC-62 melanoma and 15.8 µM with SF-295 CNS.
`COC(=O)[C@H]1CCCN1C(=O)[C@H]1CCCN1C(=O)[C@H](Cc1c[nH]c2ccccc12)NC(=S)Nc1cc(C(F)(F)F)cc(C(F)(F)F)c1`: the GI50 is 5.83 µM in the assay with SK-MEL-28 melanoma; 4.08 µM in the assay on A549 NSCLC; 3.93 µM with SF-539 CNS; 4.21 µM with U251 CNS; 1.45 µM with SNB-75 CNS; 5.34 µM with SK-MEL-2 melanoma. The GI50 is 4.88 µM in the assay with MOLT-4 leukemia, 2.08 µM in the assay with COLO 205 colon, 6.14 µM with UACC-62 melanoma and 2.77 µM in the assay with SF-295 CNS. Also, the TGI was more than 100 µM with SK-MEL-28 melanoma; more than 100 µM in the assay on A549 NSCLC; 30.4 µM in the assay on SF-539 CNS; 61.9 µM in the assay on U251 CNS; more than 100 µM with SNB-75 CNS; 27.8 µM in the assay with SK-MEL-2 melanoma. The TGI is more than 100 µM in the assay with MOLT-4 leukemia, 4.28 µM in the assay with COLO 205 colon, more than 100 µM in the assay with UACC-62 melanoma and 12.9 µM in the assay with SF-295 CNS.
